According to ChEMBL document CHEMBL1151583, “Conformationally-restricted analogs of TXA2 antagonist SQ 33,961: Receptor binding conformation of the carboxyl sidechain” (Bioorg Med Chem Lett, 1991):

Organism: Homo sapiens
Test: In vitro ability to inhibit arachidonic acid induced platelet aggregation (AAIPA)
Type: functional
Settings: read-out: I50

| Structure (SMILES) | IC50 |
| --- | --- |
| O=C(O)CCc1ccccc1/C=C1/C2CCC(O2)C1c1nc(C(=O)NCCCCC2CCCCC2)co1 (configuration not stated) | 12.7 µM |
| O=C(O)CCc1ccccc1/C=C1\C2CCC(O2)C1c1nc(C(=O)NCCCCC2CCCCC2)co1 (configuration not stated) | 0.008 µM |
